# Data taken from patent US20240374546A1, “USES AND METHODS FOR PROMOTING INCREASED MITOCHONDRIAL MASS AND FUNCTION” (Brightseed, Inc., priority 2022, published 2024).
# “Also recorded” adds a separate entry of the source.
# What was measured:
# nitric oxide (NO) = assay: Nitric oxide assay, mouse liver; type: in vivo; details: HFD+NCT vs HFD, normalized to liver weight
# Description: T6PNE cells were maintained in RPMI (5.5 mM glucose, Corning) supplemented with 10% fetal bovine serum (FBS, Sigma-Aldrich) and 1% penicillin-streptomycin (pen-strep, Gibco) in 5% CO2 at 37° C. Cells were treated with […] palmitate plus 0 or 15 μM NCT for 3 days in 10 cm plates and harvested with 500 μl PBS. For tissue specimens, snap frozen mouse liver was weighed and homogenized with PBS. NO was measured with the QuantiChrom Nitric Oxide Assay kit (D2NO-100, BioAssay Systems). Homogenized samples (150 μl) were processed for deproteination with 8 μl ZnSO4 and 8 μl NaOH. For normalization, an aliquot of samples from T6PNE cells was taken for BCA assay before deproteination. Samples and standard from kit incubated with reagents for 20 min at 60° C. and measured OD 540 nm.
# [1] = Overall tolerability across studies (maximum tolerated dose, two-week IP, long term oral); type: in vivo; details: short-term maximum tolerated dose study, two-week IP 200 mg/kg bid, long term oral administration
# From the text: Given the chronic nature of disorders of lipotoxicity, the lack of discernable toxicity of NCT is critical, but this will obviously require additional investigation in human clinical trials.
# [2] = Free fatty acid quantification in serum; type: in vivo, mouse; details: HFD+NCT vs HFD, 10 weeks
# Description: Blood samples were collected from dextrose injected mice and centrifuged to collect serum samples. The serum FFA level was measured according to manufacturer's instructions using a Free Fatty Acid Quantification Colorimetric/Fluorometric Kit (Cat #K612, BioVision, USA). Fold change was calculated by normalizing to values from mice fed NC.
# [3] = tested on: succinate dehydrogenase (SDHA); assay: Western blot, mouse liver, SDHA; type: in vivo; details: HFD+NCT vs HFD
# Description: Mouse liver extracts were prepared by incubation in RIPA buffer (Invitrogen) containing protease inhibitors (Calbiochem, San Diego, CA). Protein was quantified by BCA assay (Thermo Scientific). Protein ([…] for cytochrome C) was separated on 12% or 16% Tri-Glycine gels (Invitrogen) and transferred to Immobilon P membrane (0.2 μm pore size, Millipore). After 1 hour in phosphate-buffered saline-Tween (PBST) with 3% milk, membranes were incubated with antibodies to PPARGC1A(PGC1α) (Cat #NBP1-04676, Novus, 1:1000), SDHA XP (Cat #11998, Cell Signaling 1:1000), or Cytochrome C (Cat #4280, Cell Signaling 1:500), followed by secondary antibody conjugated to horseradish peroxidase (1:5000, Jackson Immune or Cell Signaling). […] After detection, membrane was incubated with Ponceau S solution (Sigma) for 1 hr for normalization to loaded protein.
# [4] = Subcutaneous delivery of NCT to DIO mice; type: in vivo, mouse; details: 2 weeks
# Description: 12-week-old C57BL/6J DIO male mice were purchased from Jackson laboratory (cat #380050) and were fed with high fat diet (Research Diets, cat #D12492 60 kcal % fat). […] 14 week old mice were injected subcutaneously using sterile insulin syringes filled with DMSO or NCT (200 mg/kg of mouse body weight) bid for 2 weeks. For oral gavage, 14-week-old C57BL/6J DIO male mice were fed by oral gavage using a feeding needle attached to a sterile 1 ml syringe filled with 200 μL of methyl cellulose (MC, vehicle control) or 200 μL of NCT (200 mg/kg) dissolved in methyl cellulose twice a day for 2 weeks. […] For analysis all mice were sacrificed after 2 weeks of treatment.
# citrate synthase = assay: Citrate synthase activity in liver homogenate; type: in vivo, mouse; details: HFD+NCT vs HFD
# Description: Citrate synthase activity in liver homogenate was measured according to manufacturer's instructions using a calorimetry based MitoCheck Citrate Synthase Activity Assay Kit (Cat #701040, Cayman Chemicals, USA).
# Sirtuin1 mRNA = assay: qPCR primary human hepatocytes, Sirtuin1 mRNA; type: cell-based; details: NCT 5, 15, 40 μM
# Description: Experiments with primary human hepatocytes were performed by CN-Bio (Cambridge, UK). Briefly, primary human hepatocytes (PHHs), human Kupffer cells (HKs) and human stellate cells (HSCs) were seeded onto CN-Bio's PhysioMimix LC12 MPS culture plates at 6×10^5 cells for PHHs and 6×10^4 cells for HKs and HSCs in 1.6 ml of CN-Bio's HEP-lean media with 5% FCS. Throughout the experiment the cells were maintained at a flow rate of 1 μl/s. After 24 hours (Day 1) of seeding, the media was changed to HEP-lean media and the cells were incubated until day 4 to allow the cells to form microtissues. At day 4 post seeding, media was changed to HEP-fat media and treated with DMSO or NCT (5, 15, 40 μM). Media was replaced on days 6 and 8. Cells were harvested on day 10 for RNA extraction and culture media was collected for ELISA analysis.
# (§1) Total RNA was isolated from liver tissues and primary human hepatocytes using Trizol (Invitrogen). cDNA was amplified using 3 μg of total RNA using qScript cDNA SuperMix (Quanta BioSciences, Beverly, MA, USA). Quantitative real time PCR (RT-PCR) analysis was performed using SYBR® Select Master Mix (Applied Biosystems) and an ABI 7900HT thermal cycler (Applied Biosystems, Thermo Fisher Scientific). Ct values were normalized to 18s rRNA and are expressed as fold change over samples from mice fed NC or cultured human hepatocytes without NCT.
# IL-6 mRNA = assay: qPCR mouse liver, IL-6 mRNA; type: in vivo; details: HFD+NCT vs HFD
# Description: as §1
# palmitate-loaded cells = assay: Fat clearance from palmitate-loaded cells; type: cell-based; details: in vitro
# Parp2 mRNA = assay: qPCR mouse liver, Parp2 mRNA; type: in vivo; details: HFD+NCT vs HFD
# Description: as §1
compound,measurement,setting,value
"O=C(/C=C/c1ccc(O)c(O)c1)NCCc1ccc(O)cc1 [NCT, N-transcaffeoyltyramine]",nitric oxide (NO) in liver,nitric oxide (NO),decreased
same,deleterious effects / toxicity,[1],not seen any deleterious effects
same,circulating free fatty acid (FFA),[2],no difference
same,hepatic succinate dehydrogenase protein level (HFD-induced decrease),[3],reversed
same,liver color after subcutaneous NCT,"[4]; 200 mg/kg bid, vs DMSO",No difference in liver color
same,outcome of subcutaneous delivery,"[4]; 200 mg/kg, 2 doses per day, subcutaneous",compound precipitation
same,citrate synthase activity (HFD-induced decrease),citrate synthase,reversed; also recorded: substantial reversal
same,Sirtuin1 mRNA in primary human hepatocytes,Sirtuin1 mRNA,significant effect
same,IL-6 mRNA in mouse liver,IL-6 mRNA,significantly reduced
same,body weight less than mice fed HFD,"HFD+NCT (4000 ppm NCT in chow, approx. 400 mg/kg/d) vs HFD, end of experiment at 10 weeks",~10 gm
same,week at which lower body weight became evident,HFD+NCT vs HFD,5 week
same,difference in body weight,"HFD+NCT vs HFD, 10 weeks",35-40%
same,liver redness,"HFD+NCT vs HFD, 10 weeks",redder livers
same,obesity (appearance),"HFD+NCT vs HFD, 10 weeks",markedly less obese
same,epididymal fat pad weight,"HFD+NCT vs HFD, end of study, normalized to body weight",no change
same,liver weight,"HFD+NCT vs HFD, normalized to body weight",lower liver weight
same,liver size,"HFD+NCT vs HFD, photographs",reduction of liver size
same,physical activity or other behaviors,"mouse, in vivo",no discernible difference
same,fat clearance from palmitate-loaded cells,palmitate-loaded cells,induced fat clearance
same,Parp2 mRNA level,Parp2 mRNA,not modulated
